Each block holds one molecule with its values, some of them ahead of it.
Key:
[1] = In vivo pharmacokinetics in female Balb/c Nude mice
Method: Test sample: On the basis of the above experiments, compound 1 was selected for further experiments.
Experimental methods: The purpose of this study was to determine the pharmacokinetic parameters of compound 1 and to calculate its oral bioavailability in female Balb/c Nude mice. This project used 4 female Balb/c Nude mice. Two mice were administered intravenously at a dose of 1 mg/kg, and plasma samples were collected at 0 hours (before administration) and 0.0833, 0.25, 0.5, 1, 2, 4, 6, 8, 24 hours after administration. The other two mice were administered orally by gavage at a dose of 10 mg/kg or 25 mg/kg, and plasma samples were collected at 0 hours (before administration) and 0.25, 0.5, 1, 2, 4, 6, 8, 24 hours after administration. The collected samples were then analyzed by LC/MS/MS and data were collected. The collected analysis data were used to calculate the relevant pharmacokinetic parameters by Phoenix WinNonlin 6.2.1 software.

[2] = tested on: tumor cell line LoVo; test: In vitro LoVo cell proliferation inhibition (CellTiter-Glo); assay type: cell-based; details: Homo sapiens, LoVo cells
Method: In this experiment, the inhibitory effect of the compounds on cell proliferation was studied by detecting the effect of the compounds on the in vitro cell activity in the tumor cell line LoVo.
CellTiter-Glo Luminescent Cell Viability Assay
The following steps were carried out according to the instructions of PromegaCellTiter-Glo luminescent cell viability assay kit (Promega-G7573).
(1) CellTiter-Glo buffer was thawed and placed at room temperature.
(2) CellTiter-Glo substrate was placed at room temperature.
(3) CellTiter-Glo working solution was prepared by adding CellTiter-Glo buffer to a vial of CellTiter-Glo substrate to dissolve the substrate.
(4) Slowly vortexed to fully dissolve. […]
(8) The culture plate was left at room temperature for 10 minutes to stabilize the luminescence signal.
(9) The luminescence signal was detected on the SpectraMax i3x of Molecular Devices plate reader.
The Inhibition rate (IR) of the test compound was calculated using the following formula: IR (%)=(1−(RLU compound−RLU blank control)/(RLU solvent control−RLU blank control))*100%. The inhibition rates of different concentrations of the compounds were calculated in Excel, and then the inhibition curves were made by GraphPad Prism software and the related parameters were calculated, including the minimum inhibition rate, the maximum inhibition rate and IC50.

[3] = target: human ATR kinase (ATR/ATRIP (h)) (Homo sapiens (Human), UniProt Q13535); test: ATR enzyme activity in vitro (HTRF kinase assay); assay type: biochemical; details: 10 μM ATP, GST-cMyc-p53 substrate
Method: The inhibitory activity of the test compounds against human ATR kinase was evaluated by measuring IC50 value.
ATR/ATRIP (h) was incubated in detection buffer containing 50 nM GST-cMyc-p53 and Mg/ATP (10 μM). The reaction was initiated by adding Mg/ATP mixture. After incubation at room temperature for 30 minutes, the reaction was terminated by adding a termination solution containing EDTA. Finally, a detection buffer containing d^2-labeled anti-GST monoclonal antibody and europium-labeled anti-phospho-Ser15 antibody against phosphorylated p53 were added. Plates were then read in time-resolved fluorescence mode for homogeneous time resolution.
The fluorescence (HTRF) signal was determined according to the formula HTRF=10000×(Em665 nm/Em620 nm).

[4] = tested on: human gastric cancer SNU-601 xenograft tumor; test: In vivo efficacy, human gastric cancer cell SNU-601 CDX xenograft model; parameters: species or system mice; details: for tumor volume: day 21, CB17 SCID mice
Source text: The main objective of this study was to study the antitumor efficacy of the test sample on the xenograft tumor model of human gastric cancer cell SNU-601.
• Species: mice • Strain: CB17 SCID mice • Supplier: Huafukang Laboratory Animal Technology Co., Ltd. • Week age: 6-8 weeks old • Gender: female 2. Cell Culture
Human gastric cancer SNU-601 cells, sourced from KCLB (Cat. No.: 00601), were maintained and passaged by HD Biosciences (Shanghai) Co., Ltd. In vitro culture conditions were RPMI 1640 culture medium (containing 300 mg/L L-glutamine) with 10% fetal bovine serum, 25 mM HEPES and 25 mM sodium bicarbonate, incubated in 5% CO2 incubator at 37° C., and passaged for two or three times a week. When the number of cells reached the requirement, the cells were collected and counted. 0.2 mL (5×10^6 cells) SNU-601 cells (resuspended in DPBS:Matrigel=1:1) were subcutaneously inoculated into the right back of each mouse, and the group administration was started when the average tumor volume reached 147.61 mm^3.
Administration dosage: Compound 1 was orally administered at three doses of 15 mg/kg (administered for 3 days without administration for 4 days), 10 mg/kg (administered for 3 days without administration for 4 days) and 5 mg/kg (continuous administration).
Tumor diameters were measured with vernier calipers three times a week. The tumor volume was calculated by the formula: V=0.5×a×b^2, wherein a and b referred to the long and short diameter of the tumor, respectively. The calculation formula of relative tumor volume (RTV) was: RTV (%)=(Vt/V1)×100; the calculation formula of animal body weight change (BWC) was: BWC (%)=(BWt−BW1)/BW1×100, wherein V1 and BW1 referred to the tumor volume and body weight of a certain animal on the day of group administration, and Vt and BWt referred to the tumor volume and body weight of a certain animal at a certain measurement.
The antitumor efficacy of the compounds was evaluated by TGI (%) or relative tumor proliferation rate T/C (%). Relative tumor proliferation rate T/C (%)=TRTV/CRTV×100 (TRTV: mean RTV of the treatment group; CRTV: mean RTV of the negative control group). The relative tumor volume (RTV) was calculated according to the results of tumor measurement, and the calculation formula was RTV=Vt/V1, wherein V1 was the tumor volume measured at the time of group administration (that is, D1), Vt was the tumor volume at a certain measurement, and the data of TRTV and CRTV were taken on the same day.
TGI (%) reflected the tumor growth inhibition rate. TGI (%)=[(1−(average tumor volume at the end of administration of a certain treatment group−average tumor volume at the beginning of administration of this treatment group))/(average tumor volume at the end of treatment in the solvent control group−average tumor volume at the beginning of treatment in the solvent control group)]×100.
After the experiment, the tumor weight would be detected, and the percentage of Tweight/Cweight would be calculated. Tweight and Cweight referred to the tumor weight of the administration group and the solvent control group, respectively.
In this experiment, the xenograft tumor model of human gastric cancer cell SNU601 was used to evaluate the in vivo efficacy of the test compounds. During the whole administration period, no animals were discontinued due to body weight loss of more than 10%, and the efficacy test was terminated on the 21st day after administration.

[5] = mouse, plasma, intravenous 1 mg/kg
[6] = whole experimental period, compound 1 administration group

Chain of human ATR kinase (ATR/ATRIP (h)) (Q13535 whole entry): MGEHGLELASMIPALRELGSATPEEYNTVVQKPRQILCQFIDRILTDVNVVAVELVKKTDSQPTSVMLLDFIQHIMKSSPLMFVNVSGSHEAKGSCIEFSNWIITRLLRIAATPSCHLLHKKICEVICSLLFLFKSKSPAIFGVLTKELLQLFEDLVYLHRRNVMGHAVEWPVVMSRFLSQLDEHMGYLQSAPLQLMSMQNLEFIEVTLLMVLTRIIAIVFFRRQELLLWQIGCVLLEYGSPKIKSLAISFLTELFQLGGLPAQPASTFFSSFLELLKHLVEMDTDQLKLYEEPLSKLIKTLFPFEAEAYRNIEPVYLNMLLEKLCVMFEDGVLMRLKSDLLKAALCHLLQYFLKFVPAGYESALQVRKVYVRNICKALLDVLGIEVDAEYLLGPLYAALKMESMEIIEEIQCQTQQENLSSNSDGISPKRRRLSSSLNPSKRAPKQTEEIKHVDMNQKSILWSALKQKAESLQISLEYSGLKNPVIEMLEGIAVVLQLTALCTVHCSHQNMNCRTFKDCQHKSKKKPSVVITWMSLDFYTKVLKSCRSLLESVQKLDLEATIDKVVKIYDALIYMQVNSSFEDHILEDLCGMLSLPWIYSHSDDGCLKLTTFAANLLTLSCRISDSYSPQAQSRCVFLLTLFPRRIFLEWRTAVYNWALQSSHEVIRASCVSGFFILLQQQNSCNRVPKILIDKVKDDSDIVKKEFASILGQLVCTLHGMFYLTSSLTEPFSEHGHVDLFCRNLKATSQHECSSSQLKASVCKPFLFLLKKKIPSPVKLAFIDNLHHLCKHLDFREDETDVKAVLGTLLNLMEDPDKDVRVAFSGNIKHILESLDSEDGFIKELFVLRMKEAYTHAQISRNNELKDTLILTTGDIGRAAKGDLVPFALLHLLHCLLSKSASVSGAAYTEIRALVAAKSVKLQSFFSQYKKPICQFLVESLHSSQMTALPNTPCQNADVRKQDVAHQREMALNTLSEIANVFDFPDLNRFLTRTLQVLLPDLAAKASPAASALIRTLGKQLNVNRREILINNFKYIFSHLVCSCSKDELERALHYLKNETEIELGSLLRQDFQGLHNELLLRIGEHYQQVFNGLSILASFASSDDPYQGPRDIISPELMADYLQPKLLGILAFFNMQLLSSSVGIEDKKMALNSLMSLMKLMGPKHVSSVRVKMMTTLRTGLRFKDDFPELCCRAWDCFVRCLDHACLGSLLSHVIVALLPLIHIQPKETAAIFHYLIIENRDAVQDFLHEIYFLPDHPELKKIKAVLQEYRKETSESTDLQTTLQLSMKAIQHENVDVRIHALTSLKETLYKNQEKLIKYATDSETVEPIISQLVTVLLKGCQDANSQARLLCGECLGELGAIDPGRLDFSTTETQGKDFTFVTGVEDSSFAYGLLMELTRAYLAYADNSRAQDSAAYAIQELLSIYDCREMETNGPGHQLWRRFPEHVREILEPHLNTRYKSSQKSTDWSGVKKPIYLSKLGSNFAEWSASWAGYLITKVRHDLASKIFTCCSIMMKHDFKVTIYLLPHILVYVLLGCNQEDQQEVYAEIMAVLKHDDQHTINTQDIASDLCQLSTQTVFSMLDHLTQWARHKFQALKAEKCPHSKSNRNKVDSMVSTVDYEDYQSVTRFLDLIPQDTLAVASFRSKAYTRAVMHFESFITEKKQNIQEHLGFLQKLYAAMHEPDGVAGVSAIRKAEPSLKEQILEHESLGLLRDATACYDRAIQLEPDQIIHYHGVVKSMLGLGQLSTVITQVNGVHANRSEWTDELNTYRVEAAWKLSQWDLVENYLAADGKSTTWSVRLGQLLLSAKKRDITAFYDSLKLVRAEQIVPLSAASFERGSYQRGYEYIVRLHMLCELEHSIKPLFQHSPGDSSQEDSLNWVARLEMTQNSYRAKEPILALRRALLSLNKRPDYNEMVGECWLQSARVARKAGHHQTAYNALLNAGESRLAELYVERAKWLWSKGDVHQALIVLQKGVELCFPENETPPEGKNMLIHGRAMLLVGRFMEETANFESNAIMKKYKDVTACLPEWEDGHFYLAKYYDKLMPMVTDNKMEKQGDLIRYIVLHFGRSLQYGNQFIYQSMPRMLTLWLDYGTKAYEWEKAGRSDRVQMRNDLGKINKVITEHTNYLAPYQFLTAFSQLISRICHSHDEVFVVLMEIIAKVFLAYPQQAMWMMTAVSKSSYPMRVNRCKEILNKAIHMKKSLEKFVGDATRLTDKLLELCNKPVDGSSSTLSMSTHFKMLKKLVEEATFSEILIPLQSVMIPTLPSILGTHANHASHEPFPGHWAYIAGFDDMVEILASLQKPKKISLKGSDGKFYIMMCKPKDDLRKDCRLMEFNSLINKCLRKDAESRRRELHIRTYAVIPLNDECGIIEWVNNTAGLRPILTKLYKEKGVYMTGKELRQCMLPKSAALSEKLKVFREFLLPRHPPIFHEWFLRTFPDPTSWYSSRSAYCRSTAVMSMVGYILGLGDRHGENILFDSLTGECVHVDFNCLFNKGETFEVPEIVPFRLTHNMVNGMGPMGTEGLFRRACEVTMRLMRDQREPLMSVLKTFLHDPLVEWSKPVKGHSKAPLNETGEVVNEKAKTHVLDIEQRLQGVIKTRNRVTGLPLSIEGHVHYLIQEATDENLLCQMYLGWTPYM
Chain of human ATR kinase (ATR/ATRIP (h)) (Q8WXE1 whole entry partner): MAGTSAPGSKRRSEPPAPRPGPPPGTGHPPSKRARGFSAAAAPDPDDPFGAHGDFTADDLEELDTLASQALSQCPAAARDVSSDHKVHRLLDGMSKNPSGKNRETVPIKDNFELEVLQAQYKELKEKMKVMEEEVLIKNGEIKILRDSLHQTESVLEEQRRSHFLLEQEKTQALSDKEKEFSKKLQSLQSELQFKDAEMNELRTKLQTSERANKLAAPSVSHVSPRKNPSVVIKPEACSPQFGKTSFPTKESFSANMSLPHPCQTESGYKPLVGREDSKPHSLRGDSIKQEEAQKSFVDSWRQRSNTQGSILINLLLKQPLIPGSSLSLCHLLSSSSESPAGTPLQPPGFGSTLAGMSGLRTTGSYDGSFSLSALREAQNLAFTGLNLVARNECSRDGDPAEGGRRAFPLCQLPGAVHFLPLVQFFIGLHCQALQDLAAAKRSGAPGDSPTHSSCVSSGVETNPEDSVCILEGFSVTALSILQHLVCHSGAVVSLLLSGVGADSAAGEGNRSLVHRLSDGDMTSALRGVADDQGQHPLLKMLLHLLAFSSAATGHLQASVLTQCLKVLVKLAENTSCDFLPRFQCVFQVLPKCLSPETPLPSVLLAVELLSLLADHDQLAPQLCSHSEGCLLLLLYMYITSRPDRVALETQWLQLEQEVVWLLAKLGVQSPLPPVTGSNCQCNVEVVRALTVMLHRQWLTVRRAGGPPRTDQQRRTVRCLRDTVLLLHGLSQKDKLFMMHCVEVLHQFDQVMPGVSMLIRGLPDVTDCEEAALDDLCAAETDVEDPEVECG

C0 ([1]; mouse, intravenous 1 mg/kg, plasma): 2.8 µM
AUC(0-t) [1, 5]: 2.55 µM·h
clearance [1, 5]: 15.8 mL/min/kg
half-life [1, 5]: 1.32 h
Vd ([1]; mouse, plasma, intravenous 1 mg/kg, read-out: Vdss): 1.65 L/kg
AUC(0-t) ([1]; mouse, plasma, oral 10 mg/kg): 23 µM·h
Cmax ([1]; mouse, plasma, oral 10 mg/kg): 9.56 µM
half-life ([1]; mouse, plasma, oral 10 mg/kg): 1.4 h
AUC(0-t) ([1]; mouse, plasma, oral 25 mg/kg): 82 µM·h
Cmax ([1]; mouse, plasma, oral 25 mg/kg): 17.4 µM
half-life ([1]; mouse, plasma, oral 25 mg/kg): 3.8 h
F ([1]; oral 10 mg/kg vs intravenous 1 mg/kg): 91.6%
IC50 [2]: 0.102 µM
IC50 [3]: 0.033 µM
animal state [4, 6]: had no abnormality
SMILES: Cc1nnn(C)c1-c1cc(-c2c(F)ncc3[nH]ccc23)nc(N2CCOC[C@H]2C)c1 [Compound 1]
tumor volume ([4]; oral 5 mg/kg (continuous administration)): 229.99±24.42 mm^3
tumor inhibition rate TGI ([4]; oral 5 mg/kg (continuous administration), day 21, p<0.01): 88.61%
tumor volume ([4]; oral 10 mg/kg (3 days on, 4 days off)): 136.74±14.46 mm^3
tumor inhibition rate TGI ([4]; oral 10 mg/kg (3 days on, 4 days off), day 21, P<0.01): 101.08%
tumor volume ([4]; oral 15 mg/kg (3 days on, 4 days off)): 108.74±9.67 mm^3
tumor inhibition rate TGI ([4]; oral 15 mg/kg (3 days on, 4 days off), day 21, p<0.01): 104.81%
body weight of the animals [4, 6]: did not decrease significantly

IC50 [3]: 0.336 µM
SMILES: C[C@@H]1COCCN1c1cc(-c2cccn2C)cc(-c2c(F)ncc3[nH]ccc23)n1 [Compound 5]

IC50 [3]: 0.211 µM
SMILES: C[C@@H]1COCCN1c1cc(-c2cnnn2C)cc(-c2c(F)ncc3[nH]ccc23)n1 [Compound 6]

IC50 [3]: 0.5 µM
SMILES: Cc1nn(C)cc1-c1cc(-c2c(F)ncc3[nH]ccc23)nc(N2CCOC[C@H]2C)c1 [Compound 13]

IC50 [3]: 0.057 µM
SMILES: Cc1cnn(C)c1-c1cc(-c2c(F)ncc3[nH]ccc23)nc(N2CCOC[C@H]2C)c1 [Compound 14]

IC50 [3]: 0.204 µM
SMILES: C[C@@H]1COCCN1c1cc(-c2ccnn2C)cc(-c2c(F)ncc3[nH]ccc23)n1 [Compound 15]

The next lines start with the molecule.

SMILES: Cc1nnc(C)n1-c1cc(-c2c(F)ncc3[nH]ccc23)nc(N2CCOC[C@H]2C)c1 [Compound 2]
IC50 [2]: 0.234 µM
IC50 [3]: 0.069 µM

SMILES: Cc1ncccc1-c1cc(-c2c(F)ncc3[nH]ccc23)nc(N2CCOC[C@H]2C)c1 [Compound 7]
IC50 [3]: 0.078 µM

SMILES: Cc1ccccc1-c1cc(-c2c(F)ncc3[nH]ccc23)nc(N2CCOC[C@H]2C)c1 [Compound 8]
IC50 [3]: 0.425 µM

SMILES: Cc1n[nH]c(C)c1-c1cc(-c2c(F)ncc3[nH]ccc23)nc(N2CCOC[C@H]2C)c1 [Compound 9]
IC50 [3]: 0.031 µM

SMILES: COc1cc(C)c(-c2cc(-c3c(F)ncc4[nH]ccc34)nc(N3CCOC[C@H]3C)c2)cn1 [Compound 10]
IC50 [3]: 0.182 µM

SMILES: Cc1noc(C)c1-c1cc(-c2c(F)ncc3[nH]ccc23)nc(N2CCOC[C@H]2C)c1 [Compound 16]
IC50 [3]: 0.078 µM

From patent US12448378B2, “Fluoropyrrolopyridine compound and application thereof” (Wuxi Life Fountain Biotech Co., Ltd, priority 2020, dated 2025)
